Test results taken from paper PMC11887385 (Virology Journal, 2025).

What was measured:
[1] = test system: HIV-1 7406 (190C; 41L/69S*/74 V/184 V/210W/215Y); assay: Antiviral activity on resistant variant, TZM-bl F-Luc; assay type: cell-based; conditions: Human immunodeficiency virus 1, TZM-bl
HIV-1NL4-3 [2] = assay: Antiviral activity, TZM-bl reporter cells, F-Luc; assay type: cell-based
HIV-1 K103N = assay: Antiviral activity on single RT mutant, TZM-bl F-Luc; assay type: cell-based; conditions: Human immunodeficiency virus 1, TZM-bl
HIV-1 L100I = assay: as above; assay type: cell-based; conditions: Human immunodeficiency virus 1, TZM-bl
HIV-1 G190C = assay: as above; assay type: cell-based; conditions: Human immunodeficiency virus 1, TZM-bl
HIV-1 K101P = assay: as above; assay type: cell-based; conditions: Human immunodeficiency virus 1, TZM-bl
HIV-1 G190S = assay: as above; assay type: cell-based; conditions: Human immunodeficiency virus 1, TZM-bl
[3] = test system: HIV-1 7396 (41L/67N/69N/70R/215F); assay: Antiviral activity on resistant variant, TZM-bl F-Luc; assay type: cell-based; conditions: Human immunodeficiency virus 1, TZM-bl
[4] = test system: HIV-1 12,241 (101E/138G/190S); assay: as above; assay type: cell-based; conditions: Human immunodeficiency virus 1, TZM-bl
HIV-1 G190A = assay: Antiviral activity on single RT mutant, TZM-bl F-Luc; assay type: cell-based; conditions: Human immunodeficiency virus 1, TZM-bl
[5] = test system: HIV-1 12,227 (101P/103N; 41L/215Y); assay: Antiviral activity on resistant variant, TZM-bl F-Luc; assay type: cell-based; conditions: Human immunodeficiency virus 1, TZM-bl
HIV-1NL4-3 [6] = assay: Time-of-addition; assay type: cell-based; conditions: TZM-bl, MOI 0.5, read at 48 h
[7] = test system: HIV-1 12,243 (100I/179D/230L; 41L/67G/74I); assay: Antiviral activity on resistant variant, TZM-bl F-Luc; assay type: cell-based; conditions: Human immunodeficiency virus 1, TZM-bl
[8] = test system: HIV-1 12,231 (103N/179F/181C; 41L/215F); assay: as above; assay type: cell-based; conditions: Human immunodeficiency virus 1, TZM-bl
[9] = test system: HIV-1 7407 (103N; 70R/115F); assay: as above; assay type: cell-based; conditions: Human immunodeficiency virus 1, TZM-bl
[10] = test system: HIV-1NL4-3 integrated proviral DNA; assay: Integrated proviral DNA in infected A3.01 cells, Alu-PCR; assay type: cell-based; conditions: A3.01, 1 μM
recombinant HIV-1 RTase = recombinant HIV-1 RTase (Human immunodeficiency virus type 1 group M subtype B, UniProt P04585); assay: In vitro RTase assay; assay type: biochemical; conditions: IC50 against RTase, 0.5 unit RTase, 1 h, 24 °C
[11] = test system: Tat-mediated viral transcription of LTR; assay: Tat-mediated LTR transcription in bl-DTR cells; assay type: cell-based, HIV-1; conditions: doxycycline, 24 h
[12] = test system: HIV-1NL4-3 early and late RT products; assay: HIV-1 reverse transcripts in infected A3.01 cells, RT-qPCR; assay type: cell-based; conditions: A3.01, 1 μM, 6 h
Cell viability test [13] = assay type: cell-based; conditions: human, PBMCs
PBMCs = assay: Cell viability test; assay type: cell-based
Cell viability test [14] = assay type: cell-based, human; conditions: human, A3.01 cells
A3.01 cells = assay: Cell viability test; assay type: cell-based, human; conditions: A3.01
Cell viability test [15] = assay type: cell-based; conditions: human, TZM-bl cells, CC50 (1:5 dilution)
TZM-bl cells = assay: Cell viability test; assay type: cell-based; conditions: 48 h
HIV-1 89.6 = assay: Antiviral activity, TZM-bl reporter cells, F-Luc; assay type: cell-based; conditions: Human immunodeficiency virus 1, TZM-bl, read-out: EC50 (1:5 dilution)
HIV-1 integrase = HIV-1 integrase (Human immunodeficiency virus type 1 group M subtype B, UniProt P04585); assay: HIV-1 integrase assay kit; assay type: biochemical; conditions: 10 µM
HIV-1NL4-3 [16] = assay: Viral replication in A3.01 T cells, p24 […]; assay type: cell-based; conditions: Human immunodeficiency virus 1, NL43, T-cell, read-out: EC50 (1:5 dilution)
HIV-1JRCSF [17] = assay: Antiviral activity, TZM-bl reporter cells, F-Luc; assay type: cell-based; conditions: Human immunodeficiency virus 1, TZM-bl, read-out: EC50 (1:5 dilution)
[18] = test system: HIV-1NL4-3-IRES-GFP proviral DNA; assay type: cell-based; conditions: HEK293T, 48 h
HIV-1JRCSF [19] = assay: Viral replication in PBMCs, p24 […]; assay type: cell-based; conditions: Human immunodeficiency virus 1, PBMC, read-out: EC50 (1:5 dilution)
HIV-1NL4-3 [20] = assay: Viral replication in PBMCs, p24 […]; assay type: cell-based; conditions: Human immunodeficiency virus 1, NL43, PBMC, read-out: EC50 (1:5 dilution)
[21] = Human immunodeficiency virus 1, TZM-bl, 48 h
[22] = Human immunodeficiency virus 1, TZM-bl
[23] = Human immunodeficiency virus 1, NL43, TZM-bl, read-out: EC50 (1:5 dilution)

`Cc1cn([C@H]2C[C@H](N=[N+]=[N-])[C@@H](CO)O2)c(=O)[nH]c1=O` [AZT, zidovudine] showed an EC50 [1] of 15.1 ± 2.16 µM, an EC50 (HIV-1NL4-3 [2]; [21]) of 0.29 ± 0.06 µM and an EC50 (HIV-1 K103N) of 0.11 ± 0.01 µM. It also gave an EC50 (HIV-1 L100I) of 0.07 ± 0.01 µM, an EC50 (HIV-1 G190C) of 0.05 ± 0.01 µM and an EC50 (HIV-1 K101P) of 0.04 µM. It also gave an EC50 (HIV-1 G190S) of 0.08 ± 0.01 µM, an EC50 [3] of 3.83 ± 1.21 µM and an EC50 [4] of 0.08 ± 0.03 µM. The EC50 (HIV-1 G190A) was 0.11 ± 0.01 µM, the EC50 [5] was 1 ± 0.13 µM and the “time postinfection of addition at which the inhibitory effect disappeared” value (HIV-1NL4-3 [6]) was 2 h. The EC50 [7] was 0.29 ± 0.01 µM, the EC50 [8] was 0.63 ± 0.19 µM and the EC50 [9] was > 50 µM.

In the case of `Cc1nn(C(C)c2nnc(Nc3ccn(Cc4ccccc4)n3)s2)c(C)c1Br` (centres unmarked) [BPPT, N-(1-benzyl-1H-pyrazol-3-yl)-5-[1-(4-bromo-3,5-dimethyl-1H-pyrazol-1-yl)ethyl]-1,3,4-thiadiazol-2-amine], the “integrated proviral DNA” value [10] is reported as “low level of integrated proviral DNA”, the EC50 [1] is reported as 0.35 ± 0.04 µM and the EC50 (HIV-1NL4-3 [2]; [22]) is reported as 0.06 µM. The EC50 (HIV-1 K103N) was 0.88 ± 0.12 µM, the IC50 (recombinant HIV-1 RTase) was 0.14 µM and the EC50 (HIV-1 L100I) was 3.5 ± 0.65 µM. For the same compound, the “Tat-mediated viral transcription of LTR” value [11] was “did not inhibit”, the “synthesis of viral cDNA, early and late stages of RT” value [12] was “greatly inhibited” and the CC50 (Cell viability test [13]) was > 50 µM. For the same compound, the “no cytotoxicity up to” value (PBMCs) was > 50 µM, the EC50 (HIV-1 G190C) was 0.29 ± 0.03 µM and the CC50 (Cell viability test [14]) was > 50 µM. The “no cytotoxicity up to” value (A3.01 cells) was > 50 µM, the CC50 (Cell viability test [15]) was > 50 µM and the “no (severe) cytotoxicity up to” value (TZM-bl cells) was > 250 µM. For the same compound, the EC50 (HIV-1 89.6) was 0.09 µM, the integrase activity (HIV-1 integrase) was “did not affect” and the EC50 (HIV-1NL4-3 [16]) was 0.16 ± 0.02 µM. It also gave an EC50 (HIV-1 K101P) of 1.71 ± 0.03 µM, an EC50 (HIV-1 G190S) of 0.28 ± 0.05 µM and an EC50 [4] of 4.57 ± 2.3 µM. The EC50 (HIV-1JRCSF [17]) was 0.16 ± 0.01 µM, the “GFP signal and level of p24 in the supernatant from transfected cells” value [18] was “not inhibited” and the EC50 (HIV-1 G190A) was 0.07 µM. The EC50 (HIV-1JRCSF [19]) was 0.04 ± 0.03 µM, the EC50 (HIV-1NL4-3 [20]) was 0.08 ± 0.01 µM and the EC50 [5] was > 50 µM. For the same compound, the “time postinfection of addition at which the inhibitory effect disappeared” value (HIV-1NL4-3 [6]) was 6 h, the EC50 [7] was > 50 µM and the EC50 [8] was > 50 µM. For the same compound, the EC50 [9] was 19.7 ± 1.6 µM.

In the case of `C[C@@H]1CCO[C@H]2Cn3cc(C(=O)NCc4ccc(F)cc4F)c(=O)c(O)c3C(=O)N12` [DTG, Dolutegravir], the “time postinfection of addition at which the inhibitory effect disappeared” value (HIV-1NL4-3 [6]) is reported as 8 h.

In the case of `O=C1Nc2ccc(Cl)cc2[C@@](C#CC2CC2)(C(F)(F)F)O1` [EFV, efavirenz], the EC50 (HIV-1NL4-3 [2]; [23]) is reported as 0.001 µM, the EC50 (HIV-1NL4-3 [2]; [21]) is reported as 0.001 µM and the EC50 (HIV-1 K103N) is reported as 0.04 ± 0.01 µM. It also gave an EC50 (HIV-1 L100I) of 0.02 µM, an EC50 (HIV-1 G190C) of 0.39 ± 0.09 µM and a CC50 (Cell viability test [15]) of 25.9 µM. The EC50 (HIV-1 K101P) was 0.02 µM, the EC50 (HIV-1 G190S) was 0.12 ± 0.01 µM and the EC50 [3] was 0.001 µM. It also gave an EC50 (HIV-1 G190A) of 0.01 µM, an EC50 [8] of 0.18 ± 0.22 µM and an EC50 [9] of 0.35 ± 0.03 µM.

For `Cc1ccnc2c1NC(=O)c1cccnc1N2C1CC1` [NVP, nevirapine], the EC50 [1] was > 50 µM, the EC50 (HIV-1NL4-3 [2]; [23]) was 0.08 ± 0.18 µM and the EC50 (HIV-1NL4-3 [2]; [21]) was 0.08 ± 0.02 µM. It also gave an EC50 (HIV-1 K103N) of 4.55 ± 0.27 µM, an EC50 (HIV-1 L100I) of 0.18 ± 0.04 µM and an EC50 (HIV-1 G190C) of 23.8 ± 3.31 µM. The CC50 (Cell viability test [15]) was > 50 µM, the EC50 (HIV-1 K101P) was 8.31 ± 0.6 µM and the EC50 (HIV-1 G190S) was 32.7 ± 4.49 µM. The EC50 [3] was 0.35 ± 0.07 µM, the EC50 [4] was > 50 µM and the EC50 (HIV-1 G190A) was 15.7 ± 2.73 µM. For the same compound, the EC50 [5] was > 50 µM, the EC50 [7] was 21.4 ± 2.21 µM and the EC50 [8] was > 50 µM. For the same compound, the EC50 [9] was > 50 µM.

With `Cc1nnc(C(=O)NC(C)(C)c2nc(C(=O)NCc3ccc(F)cc3)c(O)c(=O)n2C)o1` [RAL, raltegravir] the “time postinfection of addition at which the inhibitory effect disappeared” value (HIV-1NL4-3 [6]) was 8 h.

In the case of `Cc1cc(/C=C/C#N)cc(C)c1Nc1ccnc(Nc2ccc(C#N)cc2)n1` [RPV, rilpivirine], the EC50 (HIV-1NL4-3 [2]; [22]) is reported as 0.0007 µM.

In the case of `CC(C)[C@]12O[C@H]1[C@@H]1O[C@]13[C@]1(O[C@H]1C[C@H]1C4=C(CC[C@@]13C)C(=O)OC4)[C@@H]2O` [TPL, triptolide], the “time postinfection of addition at which the inhibitory effect disappeared” value (HIV-1NL4-3 [6]) is reported as 24 h.

Compound `O=C(Nc1ccc(S(=O)(=O)O)c2ccccc12)c1ccc(=O)oc1` [compound 1, 4-(2-oxo-2H-pyran-5-carboxamido)naphthalene-1-sulfonic acid] has an EC50 (HIV-1NL4-3 [2]; [21]) of 8.48 µM.

With `CCc1cc(=O)oc2cc(OC(CC)C(=O)c3ccccc3)ccc12` (centres unmarked) [compound 2, 4-ethyl-7-((1-oxo-1-phenylbutan-2-yl)oxy)-2H-chromen-2-one] the EC50 (HIV-1NL4-3 [2]; [21]) was 4.89 µM.

`CC(C)(C)c1cc([N+](=O)[O-])cc(C=O)c1O` [compound 3, 3-tert-butyl-2-hydroxy-5-nitrobenzaldehyde] gave an EC50 (HIV-1NL4-3 [2]; [21]) of 1.47 µM.

With `COc1cccc(C=NNC(=S)NN)c1OC` [compound 4, 1-amino-3-[(2,3-dimethoxyphenyl)methylideneamino]thiourea] the EC50 (HIV-1NL4-3 [2]; [21]) was 6.39 µM.

For Enfuvirtide [T20], the “time postinfection of addition at which the inhibitory effect disappeared” value (HIV-1NL4-3 [6]) was 1 h.
